Data: patent US9000028B2, “Indole and indazole compounds as an inhibitor of cellular necrosis” (LG Life Sciences Ltd., priority 2007, dated 2015)
Each block holds one molecule with its values, some of them ahead of it.

How the values were obtained:
[1] = test system: primary hepatocytes isolated from rats; assay: Hepatocyte protective effect against substances deriving hepatocyte toxicity (WST-1 viability); assay type: cell-based; conditions: Rattus norvegicus, Hepatocyte, doxorubicin, 24-48 h, read-out: EC50, cell protective effects against doxorubicin in hepatocytes
Procedure, shortened: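 Hepatocytes from two-step collagenase perfusion (≥90% viable) seeded on collagen, pretreated 30 min with compound (5-step 2- or 3-fold dilutions from 30, 10 or 1 uM; 0.2% DMSO), then exposed to hepatotoxic agents. WST-1 absorbance at 440 nm after 24-48 h; EC50 = concentration giving 50% of maximal protection.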

[2] = test system: brain cells (SK-N-MC); assay: Protective effect when tBHP was treated on brain cells (LDH assay); assay type: cell-based; conditions: Homo sapiens, tBHP 400 uM, 6 h
Protocol: In order to assess the protective effect on brain cells, 2×10^4 brain cells were distributed into the 96-well plate using DMEM media (Gibco, 10% FBS), and incubated for 24 h. The Example compounds were serially diluted by 3-fold to the final concentration of 30, 10, 3, 1, 0.3, 0.1 uM, by which each well was treated for 1 h. Cells were treated with tBHP at the final concentration of 400 uM, and incubated for 6 h. 50 uL of media was taken from each well to proceed with LDH assay (Promega). In LDH assay, 50 uL of media was mixed with 50 uL of assay solution. After the reaction for 30 min at room temperature, absorbance was measured at 490 nm using SpectraMax (Molecular Device).

[3] = test system: chondrocytes; assay: Protective effect when tBHP was treated on chondrocytes (SRB method); assay type: cell-based, SD rats; conditions: Chondrocyte; tBHP 500 uM, 3 h; rat chondrocytes
Protocol: (§1) In order to determine the protective effect on pancreatic cells, Linm5F cells, a sort of the beta cells, were distributed into the 96-well plate in the amount of 2×10^4 cells/well, and incubated for 24 h. The Example compounds were serially diluted by 3-fold to the final concentration of 30, 10, 3, 1, 0.3, 0.1 uM, by which each well was treated for 1 h. Cells were treated with tBHP at the final concentration of 400 uM, and further incubated for 5 h. Protective effects were determined using SRB (Sulforhodamine B Protein) method in which total amount of cellular protein is stained. Briefly, cells were incubated for 5 h, 50 uL of 4% formaldehyde solution was added to each well to fix the cells, and stored for about 30 min at room temperature. After discarding the media, each well was washed with distilled water 2-3 times, and the plate was dried in an oven at 50° C. 50 uL of SRB solution was added to each well, and placed for about 30 min at room temperature. After removing SRB solution, the plate was washed with 1% acetic acid solution 2-3 times. […]
In order to determine the protective effect on chondrocytes, chondrocytes were isolated from 2 hind legs of 16 week-old SD rats (body weight: 450-460 g). […] Protective effect of each compound was determined using the same SRB staining method as in Linm5F of above mentioned 2).

[4] = test system: pancreatic cells (Linm5F); assay: Protective effect when tBHP was treated on pancreatic cells (SRB method); assay type: cell-based; conditions: tBHP 400 uM, 5 h
Protocol: In order to determine the protective effect on pancreatic cells, Linm5F cells, a sort of the beta cells, were distributed into the 96-well plate in the amount of 2×10^4 cells/well, and incubated for 24 h. The Example compounds were serially diluted by 3-fold to the final concentration of 30, 10, 3, 1, 0.3, 0.1 uM, by which each well was treated for 1 h. Cells were treated with tBHP at the final concentration of 400 uM, and further incubated for 5 h. Protective effects were determined using SRB (Sulforhodamine B Protein) method in which total amount of cellular protein is stained. Briefly, cells were incubated for 5 h, 50 uL of 4% formaldehyde solution was added to each well to fix the cells, and stored for about 30 min at room temperature. After discarding the media, each well was washed with distilled water 2-3 times, and the plate was dried in an oven at 50° C. 50 uL of SRB solution was added to each well, and placed for about 30 min at room temperature. After removing SRB solution, the plate was washed with 1% acetic acid solution 2-3 times. After drying the plate in an oven at 50° C., 100 uL of 10 mM Tris was added to elute SRB which was staining the intracellular protein.

[5] = test system: kidney cells (LLC-PK1); assay: Protective effect when tBHP was treated on kidney cells (SRB method); assay type: cell-based; conditions: Sus scrofa, tBHP 400 uM, 6 h
Protocol: as §1
In order to determine the protective effect on kidney cells, 4×10^4 cells were distributed into each well, and incubated for 24 h. […] Protective effect of each compound was determined using the same SRB method as in Linm5F of above mentioned 2).

EC50 [2]: ≤ 100 nM
Compound: O=C1CN(Cc2cc(NCC3CCOCC3)c3[nH]c(-c4ccccc4)cc3c2)CCN1 [Example 63, (Tetrahydropyran-4-ylmethyl)-[2-phenyl-5-(2-oxo-piperazin-4-yl)methyl-1H-indol-7-yl]amine]
EC50 [1]: 170 nM
EC50 [3]: ≤ 100 nM

Compound: O=S1(=O)CCN(Cc2cc(NCC3CCOCC3)c3[nH]c(-c4ccccc4)cc3c2)CC1 [Example 56, (Tetrahydropyran-4-ylmethyl)-[2-phenyl-5-(1,1-dioxo-thiomorpholin-4-yl)methyl-1H-indol-7-yl]amine]
EC50 [4]: ≤ 100 nM
EC50 [1]: 130 nM
EC50 [5]: 660 nM
EC50 [3]: ≤ 100 nM
